Literature values in US7771760B2, “Oils of capsaicinoids and methods of making and using the same” (NeurogesX, Inc., priority 2005, dated 2010).

What does the source list for `COc1cc(CNC(=O)CCCC/C=C/C(C)C)ccc1O` [capsaicin]?
solubility in organic solvents (benzene, alcohol, ketone, ether and paraffin oils): soluble; solubility in cold water (cold water): sparingly soluble
